Laboratory results as given in EP3322687B1, “2-BENZYL-INDANONE COMPOUNDS AS ANTICANCER AGENT AND A PROCESS FOR PREPARATION THEREOF” (Council of Scientific and Industrial Research, priority 2015, dated 2017).

Tests used:
MCF-7 (Breast cancer) = assay: Sulforhodamine B cytotoxicity assay; assay type: cell-based; conditions: Homo sapiens, MCF7, 48 h, read-out: Human cancer cell lines IC50 MCF-7 (Breast cancer)
Description: (§1) The benzyl compounds were evaluated by Sulforhodamine B Assay as per reported method [Skehan etal., J. Natl. Cancer Inst.1990, 82, 1107]. The human cancer cell lines procured from National Cancer Institute, Frederick, U. S. A. were used in present study. Cells were grown in tissue culture flasks in complete growth medium (RPMI-1640 medium with 2 mM glutamine, pH 7.4 supplemented with 10% fetal bovine serum, 100 µg/ml streptomycin and 100 units/ml penicillin) in a carbon dioxide incubator (37°C, 5% CO2, 90% RH). The cells at subconfluent stage were harvested from the flask by treatment with trypsin (0.05% in PBS (pH 7.4) containing 0.02% EDTA). Cells with viability of more than 98%, as determined by trypan blue exclusion, were used for determination of cytotoxicity. The cell suspension required concentration of cells was prepared in complete growth medium. Stock solution of 2x10^-2 M of compounds were prepared in DMSO and further dilution was carried out complete growth medium containing 50µg/ml of gentamycin to obtained working test solution of required concentration. In vitro cytotoxicity against various human cancer cell lines was determined using 96-well cell culture plates. The 100µl of cell suspension was added to each well of the 96-well cell culture plates. The cells were allowed to grow in CO2 incubator (37°C, 5% CO2, 90% RH) for 24 hours. The test materials in complete growth medium (100 µl) were added after 24 hours incubation to the wells containing cell suspension. The plates were further incubated for 48 hours (37°C in an atmosphere of 5% CO2 and 90% relative humidity) in a carbon dioxide incubator after addition of test material and then the cell growth was stopped by gently layering trichloroacetic acid (50% TCA, 50 µl) on top of the medium in all the wells. The plates were incubated at 4°C for one hour to fix the cells attached to the bottom of the wells. The liquid of all the wells was gently pipetted out and discarded. The plates were washed five times with distilled water to remove TCA, growth medium low molecular weight metabolites, serum proteins etc. and air - dried. Cell growth was measured by staining with sulforhodamine B dye. The adsorbed dye was dissolved in Tris-HCl Buffer (100 µl/well, 0.01M, pH 10.4) and plates were gently stirred for 10 minutes on a mechanical stirrer. The optical density (OD) was recorded on ELISA reader at 540nm. Paclitaxel (Taxol), and 5-Fluorouracil were used as positive controls (Standard drugs).

THP-1 (Leukemia) = assay: Sulforhodamine B cytotoxicity assay; assay type: cell-based; conditions: Homo sapiens, THP-1, 48 h, read-out: Human cancer cell lines IC50 THP-1 (Leukemia)
Description: as §1

[1] = In-vivo acute oral toxicity; parameters: species or system Swiss albino mice; conditions: for ALP / Albumin / Bilirubin / Body weight / Cholesterol / Creatinine / Haemoglobin / RBC / SGOT / SGPT / Serum Protein / Triglycerides / WBC: 7th day, Mean±SE, n=6
Description: In view of potent anti-cancer activity of compound 2 in in-vitro model, acute and sub-acute oral toxicity of the same was carried out in Swiss albino mice for its further development into drug product. Experiment was conducted in accordance with the Organization for Economic Cooperation and Development (OECD) test guideline No 423 (1987).
For the acute oral toxicity study, 30 mice (15 male and 15 female) were taken and divided into […] comprising 3 male and 3 female mice in each group weighing between 20-25 g. The animals were maintained at 22±5°C with humidity control and also on an automatic dark and light cycle of 12 hours. The animals were fed with the standard mice feed and provided ad libitum drinking water. Mice of group 1 (Group 1) were kept as control and animals of groups 2, 3, 4 and 5 (Groups II, III, IV & V) were kept as experimental. The animals were acclimatized for 7 days in the experimental environment prior to the actual experimentation. The test compound 2 was solubilized in dimethyl sulphoxide and then suspended in double distilled water (DDW) and was given at 5, 50, 300 and 1000mg/kg body weight to animals of groups 2, 3, 4 and 5 (Groups II, III, IV & V) respectively once orally. Control animals received only vehicle.
The animals were checked for mortality and any signs of ill health at hourly interval on the day of administration of drug and there after a daily general case side clinical examination was carried out including changes in skin, mucous membrane, eyes, occurrence of secretion and excretion and also responses like lachrymation, piloerection respiratory patterns etc. Also changes in gait, posture and response to handling were also recorded. In addition to observational study, body weights were recorded and blood and serum samples were collected from all the animals on 7th day of the experiment in acute oral toxicity. The samples were analysed for total RBC, WBC, differential leucocytes count, haemoglobin percentage and biochemical parameters like ALP, SGPT, SGOT, total cholesterol, triglycerides, creatinine, bilirubin, serum protein, tissue protein, malonaldehyde and reduced GSH activity. The animals were then sacrificed and were necropsed for any gross pathological changes. Weights of vital organs like liver, heart, kidney etc. were recorded. Table 7. Effect of compound 2 as a single acute oral dose at 5, 50, 300 and 1000 mg/kg on body weight, haematological and serum biochemical parameters in Swiss albino mice (Mean±SE; n=6; a, P<0.001 compared to control, 5, 50, 300, 1000 mg/kg)

Structure (SMILES): COc1cc(C2c3c(cc(OC)c(OC)c3OC)C(=O)C2Cc2ccc3c(c2)OCO3)cc(OC)c1OC (stereo not drawn) [Compound 2, 2-(3",4"-methylenedioxybenzyl)-3-(3',4',5'-trimethoxyphenyl)-4,5,6-trimethoxy-indan-1-one]
- IC50 (MCF-7 (Breast cancer)): 3000 nM
- IC50 (THP-1 (Leukemia)): 1000 nM
- ALP change as compare to control groups ([1]; 1000 mg/kg body weight, single oral dose): significant changes
- differential leucocytes counts ([1]; single acute oral dose at 5, 50, 300 and 1000 mg/kg body weight, n=6, compared to control (Figure 2)): Non significant changes
- absolute and relative organ weight ([1]; single acute oral dose at 5, 50, 300 and 1000 mg/kg, n=6, compared to control (Figure 1)): Non significant changes
- observational changes, morbidity and mortality ([1]; single acute oral dose, up to the dose level of 1000 mg/kg body weight): No observational changes, morbidity and mortality
- ALP ([1]; single oral dose 5 mg/kg): 167.3±16.5 U/L
- Albumin ([1]; single oral dose 5 mg/kg): 3.63 ± 0.28 g/dL
- Bilirubin ([1]; single oral dose 5 mg/kg): 0.14 ± 0.07 mg/dL
- Body weight ([1]; single oral dose 5 mg/kg): 23.97±0.64 gm
- Cholesterol ([1]; single oral dose 5 mg/kg): 104.0 ± 6.7 mg/dL
- Creatinine ([1]; single oral dose 5 mg/kg): 0.56 ± 0.10 mg/dL
- Haemoglobin ([1]; single oral dose 5 mg/kg): 13.55±0.60 gm/dL
- RBC ([1]; single oral dose 5 mg/kg): 5.93±0.39 million/mm3
- SGOT ([1]; single oral dose 5 mg/kg): 12.24±1.18 U/L
- SGPT ([1]; single oral dose 5 mg/kg): 15.74±1.03 U/L
- Serum Protein ([1]; single oral dose 5 mg/kg): 1.07 ± 0.06 mg/mL
- Triglycerides ([1]; single oral dose 5 mg/kg): 98.74 ± 3.11 mg/dL
- WBC ([1]; single oral dose 5 mg/kg): 7.95±0.64 1000*/mm3
- ALP ([1]; single oral dose 50 mg/kg): 191.6±27.6 U/L
- Bilirubin ([1]; single oral dose 50 mg/kg): 0.09 ± 0.01 mg/dL
- Body weight ([1]; single oral dose 50 mg/kg): 24.29±0.95 gm
- Cholesterol ([1]; single oral dose 50 mg/kg): 120.3 ± 10.4 mg/dL
- Creatinine ([1]; single oral dose 50 mg/kg): 0.69 ± 0.08 mg/dL
- Haemoglobin ([1]; single oral dose 50 mg/kg): 13.06±0.82 gm/dL
- RBC ([1]; single oral dose 50 mg/kg): 5.83±0.17 million/mm3
- SGOT ([1]; single oral dose 50 mg/kg): 25.76±5.40 U/L
- SGPT ([1]; single oral dose 50 mg/kg): 17.92±1.69 U/L
- Serum Protein ([1]; single oral dose 50 mg/kg): 1.13 ± 0.07 mg/mL
- Triglycerides ([1]; single oral dose 50 mg/kg): 74.95 ± 5.79 mg/dL
- WBC ([1]; single oral dose 50 mg/kg): 7.99±0.55 1000*/mm3
- ALP ([1]; single oral dose 300 mg/kg): 224.0±6.70 U/L
- Albumin ([1]; single oral dose 300 mg/kg): 3.63 ± 0.28 g/dL
- Body weight ([1]; single oral dose 300 mg/kg): 23.83±0.42 gm
- Cholesterol ([1]; single oral dose 300 mg/kg): 116.5 ± 15.6 mg/dL
- Creatinine ([1]; single oral dose 300 mg/kg): 0.76 ± 0.03 mg/dL
- Haemoglobin ([1]; single oral dose 300 mg/kg): 10.90±1.11 gm/dL
- RBC ([1]; single oral dose 300 mg/kg): 6.03±0.11 million/mm3
- SGOT ([1]; single oral dose 300 mg/kg): 18.71±3.16 U/L
- SGPT ([1]; single oral dose 300 mg/kg): 18.20±1.41 U/L
- Serum Protein ([1]; single oral dose 300 mg/kg): 1.09 ± 0.06 mg/mL
- Triglycerides ([1]; single oral dose 300 mg/kg): 104.94 ± 10.39 mg/dL
- WBC ([1]; single oral dose 300 mg/kg): 8.13±0.64 1000*/mm3
- ALP ([1]; single oral dose 1000 mg/kg): 234.3±44.5 U/L
- Albumin ([1]; single oral dose 1000 mg/kg): 3.26 ± 0.30 g/dL
- Bilirubin ([1]; single oral dose 1000 mg/kg): 0.12 ± 0.04 mg/dL
- Body weight ([1]; single oral dose 1000 mg/kg): 23.41±0.16 gm
- Creatinine ([1]; single oral dose 1000 mg/kg): 0.76 ± 0.09 mg/dL
- Haemoglobin ([1]; single oral dose 1000 mg/kg): 12.29±0.53 gm/dL
- RBC ([1]; single oral dose 1000 mg/kg): 6.10±0.27 million/mm3
- SGOT ([1]; single oral dose 1000 mg/kg): 35.49±6.57 U/L
- SGPT ([1]; single oral dose 1000 mg/kg): 11.97±1.67 U/L
- Serum Protein ([1]; single oral dose 1000 mg/kg): 1.42 ± 0.16 mg/mL
- Triglycerides ([1]; single oral dose 1000 mg/kg): 87.28 ± 4.39 mg/dL
- WBC ([1]; single oral dose 1000 mg/kg): 8.57±0.76 1000*/mm3
- toxicity in in-vivo acute oral toxicity ([1]; up to 300mg/kg): no toxicity
- tolerability ([1]; up to the dose level of 1000 mg/kg body weight as a single acute oral dose): well tolerated
